Key:
[1] = target: MAPK14 (human) (UniProt Q16539); assay: Inhibition of p38 MAP Kinase in Whole Blood
[2] = target: MAPK14 (human) (UniProt Q16539); assay: Inhibition of TNF-alpha Release in THP-1 Cell; settings: thp1
[3] = target: MAPK14 (mouse); assay: Inhibition of MAPK14 Kinase Activity

Chain of MAPK14 (human) (Q16539 whole entry, looked up): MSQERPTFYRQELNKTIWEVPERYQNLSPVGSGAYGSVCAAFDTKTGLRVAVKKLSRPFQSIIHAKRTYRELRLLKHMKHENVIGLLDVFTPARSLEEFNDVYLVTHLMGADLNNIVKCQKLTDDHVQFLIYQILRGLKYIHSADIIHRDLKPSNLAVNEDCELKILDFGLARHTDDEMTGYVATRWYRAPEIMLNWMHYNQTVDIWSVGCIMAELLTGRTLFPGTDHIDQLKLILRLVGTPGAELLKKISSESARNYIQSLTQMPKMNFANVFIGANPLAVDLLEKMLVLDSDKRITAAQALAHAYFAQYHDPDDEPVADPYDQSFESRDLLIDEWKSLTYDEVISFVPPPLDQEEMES

SMILES | IC50 [1] [nM] | IC50 [2] [nM] | IC50 [3] [nM]
O=C1NCc2nc(Sc3ccc(F)cc3F)c(N3CCOCC3)cc2N1c1c(Cl)cccc1Cl | 400 | 22 | 
O=C1NCc2nc(Sc3ccc(F)cc3F)c(N3CC4CC3CN4C3CC3)cc2N1c1c(Cl)cccc1Cl (centres undefined) | 220 | 8.2 | 
O=C1NCc2nc(Sc3ccc(F)cc3F)c(NC3CCNCC3)cc2N1c1c(Cl)cccc1Cl | 17 | 9 | 
O=C1NCc2nc(Sc3ccc(F)cc3F)c(N3CCN(CCN4CCCC4)CC3)cc2N1c1c(Cl)cccc1Cl | 9 | 2 | 
O=C1NCc2nc(Sc3ccc(F)cc3F)c(N3CC4CC3CN4)cc2N1c1c(Cl)cccc1Cl (centres undefined) | 11.2 | 1.5 | 
CN(C)CCN1CCN(c2cc3c(nc2Sc2ccc(F)cc2F)CNC(=O)N3c2c(Cl)cccc2Cl)CC1 | 14 | 0.7 | 
O=C1NCc2nc(Sc3ccc(F)cc3F)c(N3CCC(CCN4CCCC4)CC3)cc2N1c1c(Cl)cccc1Cl | 940 | 7.3 | 
CC(C)N1CCN(c2cc3c(nc2Sc2ccc(F)cc2F)CNC(=O)N3c2c(Cl)cccc2Cl)CC1 | 170 |  | 
CCN1CC2CC1CN2c1cc2c(nc1Sc1ccc(F)cc1F)CNC(=O)N2c1c(Cl)cccc1Cl (centres undefined) | 42 | 1.3 | 
O=c1ncc2nc(Sc3ccc(F)cc3F)ccc2n1-c1c(Cl)cccc1Cl |  |  | 600
O=C1NCc2nc(Sc3ccc(F)cc3F)c(N3CC4CCC3C4)cc2N1c1c(Cl)cccc1Cl (centres undefined) |  | 500 | 
O=C1NCc2nc(Sc3ccc(F)cc3F)c(OC3CCNCC3)cc2N1c1c(Cl)cccc1Cl | 63 |  | 
O=C1NCc2nc(Sc3ccc(F)cc3F)c(N3CCNCC3)cc2N1c1c(Cl)cccc1Cl | 20 | 5 | 
CC(C)N1CC2CC1CN2c1cc2c(nc1Sc1ccc(F)cc1F)CNC(=O)N2c1c(Cl)cccc1Cl (centres undefined) | 65 | 1.6 | 
CC1CN(c2cc3c(nc2Sc2ccc(F)cc2F)CNC(=O)N3c2c(Cl)cccc2Cl)CC(C)O1 (centres undefined) | 72 | 25 | 
O=C1NCc2nc(Sc3ccc(F)cc3F)c(N3CC4CC3CN4CC3CC3)cc2N1c1c(Cl)cccc1Cl (centres undefined) | 51 | 1.2 | 
O=C1NCc2nc(Sc3ccc(F)cc3F)c(N3CCCCC3)cc2N1c1c(Cl)cccc1Cl |  | 500 | 

Reference: the Kinase Knowledgebase extract (Sharma et al. 2016)
